Laboratory results from ChEMBL document CHEMBL1641526, “Structure-activity relationship (SAR) of the α-amino acid residue of potent tetrahydroisoquinoline (THIQ)-derived LFA-1/ICAM-1 antagonists” (Bioorg Med Chem Lett, 2011).

What was measured:
[1] = target: T1, Intercellular adhesion molecule (ICAM-1), Integrin alpha-L/beta-2 (Homo sapiens, UniProt P05107+P05362+P20701); test: Inhibition of LFA1/ICAM1 interaction in human Hut-78 cells; type: cell-based
[2] = target: T1, Intercellular adhesion molecule (ICAM-1), Integrin alpha-L/beta-2; test: Inhibition of LFA1/ICAM1 interaction in human Hut-78 cells in presence of 10% human serum; type: cell-based
[3] = Metabolic stability in human liver microsomes after 30 mins by LC/MS analysis; type: ADME, Microsome; conditions: read-out: Stability
[4] = AUC in Sprague-Dawley rat at 5 mg/kg administered as single dose; type: ADME, organism-based; design: dose 5 mg/kg; conditions: plasma
[5] = Half life in Sprague-Dawley rat at 5 mg/kg administered as single dose; type: ADME, organism-based; design: dose 5 mg/kg; conditions: in vivo
[6] = Clearance in Sprague-Dawley rat at 5 mg/kg administered as single dose; type: ADME, organism-based; design: dose 5 mg/kg; conditions: in vivo
[7] = Metabolic stability in Sprague-Dawley rat liver microsomes after 30 mins by LC/MS analysis; type: ADME, Microsome; conditions: read-out: Stability

T1 sequence (P20701 whole entry): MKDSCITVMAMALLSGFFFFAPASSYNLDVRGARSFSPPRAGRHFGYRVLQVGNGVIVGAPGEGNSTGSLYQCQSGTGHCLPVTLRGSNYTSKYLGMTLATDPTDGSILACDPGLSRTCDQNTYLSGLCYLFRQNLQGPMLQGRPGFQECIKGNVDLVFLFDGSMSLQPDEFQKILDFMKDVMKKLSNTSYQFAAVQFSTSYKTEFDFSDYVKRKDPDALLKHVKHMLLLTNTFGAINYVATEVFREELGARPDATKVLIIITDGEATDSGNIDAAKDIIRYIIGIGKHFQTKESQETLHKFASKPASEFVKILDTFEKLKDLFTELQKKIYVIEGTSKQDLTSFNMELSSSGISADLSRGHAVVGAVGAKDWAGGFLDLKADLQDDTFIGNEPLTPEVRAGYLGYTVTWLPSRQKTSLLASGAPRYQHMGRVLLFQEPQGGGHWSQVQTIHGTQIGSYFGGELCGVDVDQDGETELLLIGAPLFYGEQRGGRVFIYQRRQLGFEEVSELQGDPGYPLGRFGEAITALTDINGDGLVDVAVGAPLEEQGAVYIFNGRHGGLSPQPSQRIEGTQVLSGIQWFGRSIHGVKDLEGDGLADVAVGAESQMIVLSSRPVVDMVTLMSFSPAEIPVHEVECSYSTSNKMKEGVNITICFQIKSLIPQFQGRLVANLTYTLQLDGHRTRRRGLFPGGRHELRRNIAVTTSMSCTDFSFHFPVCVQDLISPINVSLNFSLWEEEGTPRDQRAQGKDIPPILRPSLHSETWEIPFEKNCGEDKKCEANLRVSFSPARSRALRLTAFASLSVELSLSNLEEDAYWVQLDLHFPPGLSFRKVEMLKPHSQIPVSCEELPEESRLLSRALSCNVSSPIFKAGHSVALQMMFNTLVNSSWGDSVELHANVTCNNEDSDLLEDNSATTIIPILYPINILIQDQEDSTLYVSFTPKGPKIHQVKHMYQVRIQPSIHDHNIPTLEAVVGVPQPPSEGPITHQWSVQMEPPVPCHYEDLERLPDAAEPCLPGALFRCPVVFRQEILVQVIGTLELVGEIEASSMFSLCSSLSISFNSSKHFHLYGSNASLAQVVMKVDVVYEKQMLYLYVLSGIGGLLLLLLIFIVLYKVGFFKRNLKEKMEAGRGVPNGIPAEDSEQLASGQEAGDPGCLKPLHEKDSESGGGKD
T1 sequence (P05362 whole entry): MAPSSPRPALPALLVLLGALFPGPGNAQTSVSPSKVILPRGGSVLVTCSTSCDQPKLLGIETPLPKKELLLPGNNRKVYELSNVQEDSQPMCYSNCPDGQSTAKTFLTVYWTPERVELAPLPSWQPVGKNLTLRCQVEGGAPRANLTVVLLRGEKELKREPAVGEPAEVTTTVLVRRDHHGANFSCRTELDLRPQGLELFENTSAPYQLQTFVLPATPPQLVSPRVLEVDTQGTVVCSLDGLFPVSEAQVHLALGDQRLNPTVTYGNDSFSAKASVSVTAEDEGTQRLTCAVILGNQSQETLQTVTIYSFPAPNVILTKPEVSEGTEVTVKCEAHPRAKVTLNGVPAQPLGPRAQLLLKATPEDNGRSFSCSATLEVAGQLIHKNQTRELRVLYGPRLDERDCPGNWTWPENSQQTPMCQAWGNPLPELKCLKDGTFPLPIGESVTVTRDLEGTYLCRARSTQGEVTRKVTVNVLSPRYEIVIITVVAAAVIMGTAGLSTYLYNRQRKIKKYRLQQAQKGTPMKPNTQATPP
T1 sequence (P05107 whole entry): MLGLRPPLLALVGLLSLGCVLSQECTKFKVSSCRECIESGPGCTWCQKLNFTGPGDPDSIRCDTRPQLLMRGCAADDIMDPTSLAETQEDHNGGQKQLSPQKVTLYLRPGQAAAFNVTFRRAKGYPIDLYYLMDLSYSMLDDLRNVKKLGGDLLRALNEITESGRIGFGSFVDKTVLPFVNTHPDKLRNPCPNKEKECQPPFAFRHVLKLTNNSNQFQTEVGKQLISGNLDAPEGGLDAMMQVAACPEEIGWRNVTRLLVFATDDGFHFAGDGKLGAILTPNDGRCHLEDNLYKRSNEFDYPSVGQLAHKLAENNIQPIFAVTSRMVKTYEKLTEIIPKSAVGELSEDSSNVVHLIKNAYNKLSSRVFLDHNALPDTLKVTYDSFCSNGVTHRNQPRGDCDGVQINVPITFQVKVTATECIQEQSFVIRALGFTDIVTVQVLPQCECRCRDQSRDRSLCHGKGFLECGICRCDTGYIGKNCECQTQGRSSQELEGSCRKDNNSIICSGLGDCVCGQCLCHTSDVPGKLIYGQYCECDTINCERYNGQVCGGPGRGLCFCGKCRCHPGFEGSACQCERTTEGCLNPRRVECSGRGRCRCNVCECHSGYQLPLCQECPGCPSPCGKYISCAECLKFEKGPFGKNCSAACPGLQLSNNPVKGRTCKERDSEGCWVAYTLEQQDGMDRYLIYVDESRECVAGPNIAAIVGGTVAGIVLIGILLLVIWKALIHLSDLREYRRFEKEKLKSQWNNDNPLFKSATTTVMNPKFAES

SMILES | IC50 [1] [µM] | IC50 [2] [µM] | other results
CS(=O)(=O)c1ccc(C[C@H](NC(=O)c2c(Cl)cc3c(c2Cl)CCN(C(=O)c2ccc4ccoc4c2)C3)C(=O)O)s1 | 0.15 | – | –
CS(=O)(=O)n1cc(C[C@H](NC(=O)c2c(Cl)cc3c(c2Cl)CCN(C(=O)c2ccc(Cl)cc2)C3)C(=O)O)c2ccccc21 | 0.1 | 25 | –
CC(C)n1cnc(C[C@H](NC(=O)c2c(Cl)cc3c(c2Cl)CCN(C(=O)c2ccc(Cl)cc2)C3)C(=O)O)c1 | 0.17 | – | –
CC(C)n1cc(C[C@H](NC(=O)c2c(Cl)cc3c(c2Cl)CCN(C(=O)c2ccc(Cl)cc2)C3)C(=O)O)nn1 | 0.059 | 1 | remaining at 0.5 h [3]: 92%; AUC [4]: 1.41 µg·h/mL; half-life [5]: 138 min; clearance [6]: > 3.6 L/h/kg
CC(C)c1cnc(C[C@H](NC(=O)c2c(Cl)cc3c(c2Cl)CCN(C(=O)c2ccc(Cl)cc2)C3)C(=O)O)s1 | > 1 | – | –
CCOC(=O)[C@H](CNC(=O)c1cccs1)NC(=O)c1c(Cl)cc2c(c1Cl)CCN(C(=O)c1ccc3ccoc3c1)C2 | – | 0.95 | –
O=C(N[C@@H](Cc1c[nH]cn1)C(=O)O)c1c(Cl)cc2c(c1Cl)CCN(C(=O)c1ccc(Cl)cc1)C2 | 0.43 | – | –
CS(=O)(=O)c1ncc(C[C@H](NC(=O)c2c(Cl)cc3c(c2Cl)CCN(C(=O)c2ccc4ccoc4c2)C3)C(=O)O)[nH]1 | 0.03 | 0.56 | –
Cc1cccc2c(C[C@H](NC(=O)c3c(Cl)cc4c(c3Cl)CCN(C(=O)c3ccc(Cl)cc3)C4)C(=O)O)cn(S(C)(=O)=O)c12 | 0.14 | 25 | –
CC(=O)n1cc(C[C@H](NC(=O)c2c(Cl)cc3c(c2Cl)CCN(C(=O)c2ccc(Cl)cc2)C3)C(=O)O)c2ccccc21 | 0.82 | – | –
CC(C)n1cc(C[C@H](NC(=O)c2c(Cl)cc3c(c2Cl)CCN(C(=O)c2cc4ccccc4o2)C3)C(=O)O)nn1 | 0.005 | 0.19 | –
O=C(N[C@@H](Cc1cn(-c2ccccc2)cn1)C(=O)O)c1c(Cl)cc2c(c1Cl)CCN(C(=O)c1ccc(Cl)cc1)C2 | > 1 | – | –
Cc1ccc2c(c1)c(C[C@H](NC(=O)c1c(Cl)cc3c(c1Cl)CCN(C(=O)c1ccc(Cl)cc1)C3)C(=O)O)cn2S(C)(=O)=O | 0.026 | 11 | –
Cc1cccc2c1c(C[C@H](NC(=O)c1c(Cl)cc3c(c1Cl)CCN(C(=O)c1ccc(Cl)cc1)C3)C(=O)O)cn2S(C)(=O)=O | > 1 | – | –
O=C(NC[C@H](NC(=O)c1c(Cl)cc2c(c1Cl)CCN(C(=O)c1ccc(Cl)cc1)C2)C(=O)O)c1cccs1 | – | 1.5 | –
CS(=O)(=O)c1ccc(C[C@H](NC(=O)c2c(Cl)cc3c(c2Cl)CCN(C(=O)c2ccc4ccoc4c2)C3)C(=O)O)o1 | 0.0012 | 0.096 | remaining at 0.5 h [3]: > 95%; AUC [4]: 1.51 µg·h/mL; remaining at 0.5 h [7]: > 65%; half-life [5]: 25.8 min; clearance [6]: 3.6 L/h/kg
Cn1cnc(C[C@H](NC(=O)c2c(Cl)cc3c(c2Cl)CCN(C(=O)c2ccc(Cl)cc2)C3)C(=O)O)c1 | 0.56 | – | –
CC(C)c1cc(C[C@H](NC(=O)c2c(Cl)cc3c(c2Cl)CCN(C(=O)c2ccc(Cl)cc2)C3)C(=O)O)[nH]n1 | 0.25 | – | –
CC(C)c1cn(C[C@H](NC(=O)c2c(Cl)cc3c(c2Cl)CCN(C(=O)c2ccc(Cl)cc2)C3)C(=O)O)nn1 | 0.31 | – | –
CC(C)n1cc(C[C@H](NC(=O)c2c(Cl)cc3c(c2Cl)CCN(C(=O)c2ccc4ccoc4c2)C3)C(=O)O)nn1 | 0.019 | 0.95 | remaining at 0.5 h [3]: 86%; AUC [4]: 3.68 µg·h/mL; remaining at 0.5 h [7]: > 95%; half-life [5]: 58.2 min; clearance [6]: 1.56 L/h/kg
Cc1ccc2c(C[C@H](NC(=O)c3c(Cl)cc4c(c3Cl)CCN(C(=O)c3ccc(Cl)cc3)C4)C(=O)O)cn(S(C)(=O)=O)c2c1 | 0.039 | 25 | –
CS(=O)(=O)N1CCC(C[C@H](NC(=O)c2c(Cl)cc3c(c2Cl)CCN(C(=O)c2ccc4ccoc4c2)C3)C(=O)O)C1 (stereo not given in full) | 1 | – | –
CC(C)n1cc(C[C@H](NC(=O)c2c(Cl)cc3c(c2Cl)CCN(C(=O)c2cc4ccccn4n2)C3)C(=O)O)nn1 | 0.007 | 0.26 | –
NS(=O)(=O)n1cc(C[C@H](NC(=O)c2c(Cl)cc3c(c2Cl)CCN(C(=O)c2ccc(Cl)cc2)C3)C(=O)O)c2ccccc21 | > 1 | – | –
O=C(NC[C@H](NC(=O)c1c(Cl)cc2c(c1Cl)CCN(C(=O)c1ccc3ccoc3c1)C2)C(=O)O)c1cccs1 | 0.005 | 0.95 | –
